According to ChEMBL document CHEMBL1201862, “PubChem BioAssay data set” (2004):
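A five-concentration, 48-hour dose response in 96-well plates underlies each endpoint, interpolated linearly between surrounding concentrations. GI50 = concentration required for 50% inhibition of growth.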 Activity calls are given as the source filed them. No stated cut-off is given here; in the data, active = GI50 up to about 1.1 µM and inactive = higher.

How the values were obtained:
Assay in all cases: NCI-60 cell line screen, 48 h
EKVX = system: EKVX
Malme-3M = system: Malme-3M
RPMI-8226 = system: RPMI-8226
SN12C = system: SN12C
MDA-N = system: MDA-N
MCF7 = system: MCF7
OVCAR-5 = system: OVCAR-5
NCI-H522 = system: NCI-H522
HCC 2998 = system: HCC 2998
HCT-116 = system: HCT-116
A549 = system: A549
K562 = system: K562
SW-620 = system: SW-620
UO-31 = system: UO-31
DU-145 = system: DU-145
U-251 = system: U-251
Hs-578T = system: Hs-578T
LOX IMVI = system: LOX IMVI
HOP-92 = system: HOP-92

SMILES | GI50 (EKVX) | GI50 (Malme-3M) | GI50 (RPMI-8226) | GI50 (SN12C) | GI50 (MDA-N) | GI50 (MCF7) | GI50 (OVCAR-5) | GI50 (NCI-H522) | GI50 (HCC 2998) | GI50 (HCT-116) | GI50 (A549) | GI50 (K562) | GI50 (SW-620) | GI50 (UO-31) | GI50 (DU-145) | GI50 (U-251) | GI50 (Hs-578T) | GI50 (LOX IMVI) | GI50 (HOP-92)
CO/N=C1/C(n2[nH]c(=O)n(-c3ccccc3)c2=O)C2C=CC1n1c(=O)n(-c3ccccc3)c(=O)n12 (stereo not given) | > 100 µM (inactive) | > 100 µM (inactive) | > 100 µM (inactive) | > 100 µM (inactive) | > 100 µM (inactive) | > 100 µM (inactive) | > 100 µM (inactive) | > 100 µM (inactive) | > 100 µM (inactive) | > 100 µM (inactive) | > 100 µM (inactive) | > 100 µM (inactive) | > 100 µM (inactive) | > 100 µM (inactive) | > 100 µM (inactive) | > 100 µM (inactive) | > 100 µM (inactive) | > 100 µM (inactive) | 
Cc1ccc(-n2c(O)c(C#N)c3[nH]nc(N)c3c2=O)cc1 | > 100 µM (inactive) | > 100 µM (inactive) | > 100 µM (inactive) | > 100 µM (inactive) | > 100 µM (inactive) | > 100 µM (inactive) | > 100 µM (inactive) | > 100 µM (inactive) | > 100 µM (inactive) | > 100 µM (inactive) | > 100 µM (inactive) | > 100 µM (inactive) | > 100 µM (inactive) | > 100 µM (inactive) | > 100 µM (inactive) | > 100 µM (inactive) | > 100 µM (inactive) | > 100 µM (inactive) | 
O=S(=O)(O)c1cc(S(=O)(=O)O)c2c(/N=N/c3ccc(/N=N/c4ccccc4)cc3)c(O)ccc2c1 | > 100 µM (inactive) | > 100 µM (inactive) | > 100 µM (inactive) | > 100 µM (inactive) | > 100 µM (inactive) | > 100 µM (inactive) | > 100 µM (inactive) | > 100 µM (inactive) | > 100 µM (inactive) | > 100 µM (inactive) | > 100 µM (inactive) | > 100 µM (inactive) | > 100 µM (inactive) | > 100 µM (inactive) | > 100 µM (inactive) | > 100 µM (inactive) | > 100 µM (inactive) |  | > 100 µM (inactive)
O=C1c2ccccc2C(=O)c2c1ccc(C1C(=O)c3ccccc3C1=O)c2-c1c(C2C(=O)c3ccccc3C2=O)ccc2c1C(=O)c1ccccc1C2=O | > 100 µM (inactive) | > 100 µM (inactive) | 13.1 µM (inactive) | > 100 µM (inactive) | > 100 µM (inactive) | > 100 µM (inactive) | > 100 µM (inactive) | > 100 µM (inactive) |  | > 100 µM (inactive) | > 100 µM (inactive) | 36.6 µM (inactive) | 15.3 µM (inactive) | > 100 µM (inactive) | > 100 µM (inactive) | > 100 µM (inactive) | > 100 µM (inactive) | 74.3 µM (inactive) | > 100 µM (inactive)
CNc1nc(N)c(N=O)c(Nc2ccc(Br)cc2)n1 | 13.7 µM (inactive) | > 100 µM (inactive) | > 100 µM (inactive) | > 100 µM (inactive) | > 100 µM (inactive) | > 100 µM (inactive) | > 100 µM (inactive) | > 100 µM (inactive) | > 100 µM (inactive) | > 100 µM (inactive) | > 100 µM (inactive) | > 100 µM (inactive) | > 100 µM (inactive) | 9.57 µM (inactive) | > 100 µM (inactive) | 61.8 µM (inactive) | 5.35 µM (inactive) | > 100 µM (inactive) | 
COc1ccc(-n2c3c(c4cc(O)ccc42)C(=O)c2ccccc2C3=O)cc1 | 4.74 µM (inactive) | 36.2 µM (inactive) | 13.8 µM (inactive) | 2.3 µM (inactive) | > 100 µM (inactive) | 10.7 µM (inactive) | 6.04 µM (inactive) | 16.6 µM (inactive) |  | 0.305 µM (active) | 11.7 µM (inactive) | 30.7 µM (inactive) | > 100 µM (inactive) | 14.7 µM (inactive) | 19.1 µM (inactive) | 0.931 µM (active) | 7.24 µM (inactive) | 4.71 µM (inactive) | 16.9 µM (inactive)
O=C1c2ccccc2C2(c3ccc(Cl)cc3)NCc3ccccc3CN12 (stereo not given) | 20.6 µM (inactive) |  | 21.8 µM (inactive) | 43.4 µM (inactive) | 56 µM (inactive) | 17.4 µM (inactive) | 21.7 µM (inactive) |  | 20.4 µM (inactive) | 10.8 µM (inactive) | 18.5 µM (inactive) | 32.9 µM (inactive) | 37.2 µM (inactive) | 22.5 µM (inactive) | 21.3 µM (inactive) | 28.6 µM (inactive) | 22.5 µM (inactive) | 16.2 µM (inactive) | 19.7 µM (inactive)
CC1=NN(c2cccc(Cl)c2)C(=N/c2nc3ccccc3s2)/C1=C\c1cccs1 | 24.1 µM (inactive) |  | 13.4 µM (inactive) |  | 73.8 µM (inactive) | 33.9 µM (inactive) | > 100 µM (inactive) | 27.9 µM (inactive) | 35 µM (inactive) | 44.8 µM (inactive) |  | 32.7 µM (inactive) | 54.2 µM (inactive) | 60.8 µM (inactive) | 44.4 µM (inactive) | 24 µM (inactive) | 26.1 µM (inactive) | 40.7 µM (inactive) | 32.4 µM (inactive)
Clc1cccc(Cl)c1C1SCC2=Nc3ccccc3CN21 (stereo not given) | 23.7 µM (inactive) |  | 17.1 µM (inactive) | 46.7 µM (inactive) | 36.8 µM (inactive) | 20.2 µM (inactive) | 41.5 µM (inactive) |  | 29.6 µM (inactive) | 12.1 µM (inactive) | 20.5 µM (inactive) | 31.3 µM (inactive) | 33.3 µM (inactive) | 17.3 µM (inactive) | 25 µM (inactive) | 33.2 µM (inactive) | 24.8 µM (inactive) | 19.1 µM (inactive) | 40.7 µM (inactive)
O=C1/C(=C/c2ccc(O)cc2)NC(=S)N1CN1CCCCC1 | > 100 µM (inactive) | > 100 µM (inactive) | 28.6 µM (inactive) | 80 µM (inactive) | > 100 µM (inactive) | 21.3 µM (inactive) | > 100 µM (inactive) | 55.3 µM (inactive) |  | 45.8 µM (inactive) | > 100 µM (inactive) | 72.6 µM (inactive) | 36.6 µM (inactive) | 71.4 µM (inactive) | 57.1 µM (inactive) | 49.8 µM (inactive) | 85.5 µM (inactive) | 40.1 µM (inactive) | 54.6 µM (inactive)
N=C(N)NCC1CCCCCCN1 (stereo not given) | > 100 µM (inactive) | > 100 µM (inactive) | > 100 µM (inactive) | > 100 µM (inactive) | > 100 µM (inactive) | > 100 µM (inactive) | > 100 µM (inactive) | > 100 µM (inactive) | > 100 µM (inactive) | > 100 µM (inactive) | > 100 µM (inactive) | > 100 µM (inactive) | > 100 µM (inactive) | > 100 µM (inactive) | > 100 µM (inactive) | > 100 µM (inactive) | > 100 µM (inactive) |  | > 100 µM (inactive)
C[C@@H]1OC(=O)C[C@H]2CC(=O)N(CCC3CN(C(=O)OCc4ccccc4)c4ccccc43)C[C@@H]21 (stereo not given in full) | > 100 µM (inactive) | > 100 µM (inactive) | > 100 µM (inactive) |  | > 100 µM (inactive) | > 100 µM (inactive) | > 100 µM (inactive) | > 100 µM (inactive) | > 100 µM (inactive) | > 100 µM (inactive) | > 100 µM (inactive) | > 100 µM (inactive) | > 100 µM (inactive) | > 100 µM (inactive) | > 100 µM (inactive) | > 100 µM (inactive) | > 100 µM (inactive) |  | > 100 µM (inactive)
CC1(O)CC(=O)c2c(cc3ccc(-c4c5c(c(O)c6c(O)cccc46)C(=O)CC(C)(O)C5)c(O)c3c2O)C1 (stereo not given) | 0.562 µM (active) | 0.248 µM (active) | 0.0509 µM (active) | 1.39 µM (inactive) | 0.867 µM (active) | 0.199 µM (active) | 0.611 µM (active) | 0.213 µM (active) |  | 0.0647 µM (active) | 0.365 µM (active) | 0.298 µM (active) | 0.468 µM (active) | 0.212 µM (active) | 0.33 µM (active) | 0.06 µM (active) | 0.265 µM (active) | 0.817 µM (active) | 0.242 µM (active)
N=C(N)NC(CC(=O)O)c1ccccc1 (stereo not given) | > 100 µM (inactive) | > 100 µM (inactive) | > 100 µM (inactive) | > 100 µM (inactive) | > 100 µM (inactive) | > 100 µM (inactive) | > 100 µM (inactive) | > 100 µM (inactive) |  | > 100 µM (inactive) | > 100 µM (inactive) | > 100 µM (inactive) | > 100 µM (inactive) | > 100 µM (inactive) | > 100 µM (inactive) | > 100 µM (inactive) | > 100 µM (inactive) | > 100 µM (inactive) | > 100 µM (inactive)
CCc1nc(N)nc(N)c1-c1ccc(Cl)c(/N=N/N(C)C)c1 | 32.7 µM (inactive) |  | 19 µM (inactive) | 67.8 µM (inactive) | 36 µM (inactive) | 37.7 µM (inactive) | > 82 µM (inactive) | 27.7 µM (inactive) | 23.7 µM (inactive) | 15.4 µM (inactive) | 17.2 µM (inactive) | 8.04 µM (inactive) | 27.4 µM (inactive) | 18.4 µM (inactive) | 55.7 µM (inactive) | 34.5 µM (inactive) | 30.3 µM (inactive) | 24.5 µM (inactive) | 47.8 µM (inactive)
